Data taken from patent US20160120840A1, “METHOD AND COMPOSITION FOR TREATING NONEROSIVE REFLUX DISEASE” (SUCAMPO AG, priority 2014, published 2016).

Experiments:
claudin-4 = test: Quantitative real-time RT-PCR, claudin-4 expression in mouse esophagus tissue; type: in vivo; details: 6 days, TCA/DCA with 50 μM Compound A in drinking water, n=3; FIG. 4
Procedure: (§1) mRNA was prepared from mouse esophagus tissue after 6 days of treatment with vehicle or active agents (Group1:DMSO control, Group2:TCA/DCA positive control, and Group3:TCA/DCTA with 50 μM Compound A in drinking water, n=3 in each group) and reversely transcribed to cDNA by reverse transcriptase (Superscript III, Invitrogen).
(§2) Expression levels of claudin-2 which is expressed in cation-leaky epithelia, and claudin-4 which is a component of tight junction strands (PNAS 107(17), 8011-8016, 2010; Development Biology 312, 509-522, 2007; and Seminars in Cell & Developmental Biology 36 166-176, 2014), were normalized to GAPDH expression by calculating the A Ct=(Ct of GAPDH−Ct of gene). Setting the expression value of GAPDH to 1.0, the relative expression values were then calculated as 2̂ΔCt.

[1] = system: esophagus tissues (non-erosive esophageal damage induced by TCA and DCA); test: Effect on non-erosive esophageal damage: tissue conductance of esophagus in Ussing chamber after TCA+DCA treatment; type: in vivo, C57Bl/6J mice; details: mice given 4 mM TCA and 2 mM DCA in drinking water for 6 days, Compound A in drinking water for the same period; versus TCA+DCA control; FIG. 1
Procedure: Effect on non-erosive esophageal damage Male or female C57Bl/6J mice were allowed free access to drinking tap water containing 4 mM taurocholic acid (TCA) and 2 mM deoxycholic acid (DCA) for 6 days. On the day after treatment with TCA and DCA, the mice were sacrificed and their esophagus was removed. The esophagus tissues were divided into two parts and distal parts were used for the study. Each tissue was mounted in the Ussing chamber and short-circuit currents were measured. Compound A ((−)-7-{(2R,4aR,5R,7aR)-2-[(3S)-1,1-difluoro-3-methylpentyl]-2-hydroxy-6-oxooctahydrocyclopenta[b]pyran-5-yl}heptanoic acid) was administered to mice in drinking water for the same period of TCA+DCA treatment. Tissue conductance calculated based on the short-circuit current data was used as an index of tissue damage.

claudin-2 = test: Quantitative real-time RT-PCR, claudin-2 expression in mouse esophagus tissue; type: in vivo; details: 6 days, TCA/DCA with 50 μM Compound A in drinking water, n=3; FIG. 3
Procedure: as §1, §2

[2] = system: mouse esophageal tissues (epithelial layer); test: HE staining of mouse esophageal tissues; type: in vivo; details: 6 days of treatment, Compound A with TCA/DCA; FIG. 2
From the text: The mouse esophageal tissues were isolated after 6 days of treatment with control vehicle or drugs (DMSO, TCA/DCA, or Compound A with TCA/DCA). The tissues were separated into two parts, and their lower parts were used for preparation of RT-PCR samples as well as for electrophysiological examination and HE staining. The samples for HE staining were fixed with 10% neutral buffered formalin solution for 12 hrs, after which they were dehydrated and fixed in paraffin. The samples were sliced into 7 μm thick slices in a microtome, and then placed on slide glasses at 43° C. for lhr and then at 55° C. overnight. Following this, tissues were stained with Hematoxylin and Eosin staining solution. The samples were evaluated in a suitable microscope (Olympus EX-43).

`CC[C@H](C)CC(F)(F)[C@@]1(O)CC[C@H]2[C@@H](CC(=O)[C@@H]2CCCCCCC(=O)O)O1` [Compound A, (−)-7-{(2R,4aR,5R,7aR)-2-[(3S)-1,1-difluoro-3-methylpentyl]-2-hydroxy-6-oxooctahydrocyclopenta[b]pyran-5-yl}heptanoic acid] was tested, and the “Expression level of claudin-4 (normalized to GAPDH)” value (claudin-4) was “upregulated”, the “Tissue conductance (index of tissue damage)” value [1] was “reduced from that found in control animals” and the “Expression level of claudin-2 (normalized to GAPDH)” value (claudin-2) was “downregulated”. The “Tissue structure (HE staining), damage of epithelial layer by bile acids” value [2] was “restores or protects against damage by bile acids histologically”.
